Assay results as given in patent US10093623B2, “Cyclic amides as MetAP-2 inhibitors” (MERCK PATENT GmbH, priority 2012, dated 2018).

Biological target: MetAP-2 (Homo sapiens, UniProt P50579)
Assay: MetAP-2 activity measurement (coupled enzymatic reactions, Met-Arg-Ser substrate, dianisidine detection at 450 nm)
Format: biochemical
Conditions: Inhibition of MetAP-2; read-out: IC50 enzyme
Summary of the method: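 Rate read from the linear part of the 450 nm absorbance trace. Dianisidine oxidation by peroxidase reports H2O2 made when amino acid oxidase acts on methionine cleaved from MAS tripeptide, one mol dye per mol Met; extinction coefficient gives molar activity.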

Sequence of MetAP-2 (P50579 whole entry, species assumed): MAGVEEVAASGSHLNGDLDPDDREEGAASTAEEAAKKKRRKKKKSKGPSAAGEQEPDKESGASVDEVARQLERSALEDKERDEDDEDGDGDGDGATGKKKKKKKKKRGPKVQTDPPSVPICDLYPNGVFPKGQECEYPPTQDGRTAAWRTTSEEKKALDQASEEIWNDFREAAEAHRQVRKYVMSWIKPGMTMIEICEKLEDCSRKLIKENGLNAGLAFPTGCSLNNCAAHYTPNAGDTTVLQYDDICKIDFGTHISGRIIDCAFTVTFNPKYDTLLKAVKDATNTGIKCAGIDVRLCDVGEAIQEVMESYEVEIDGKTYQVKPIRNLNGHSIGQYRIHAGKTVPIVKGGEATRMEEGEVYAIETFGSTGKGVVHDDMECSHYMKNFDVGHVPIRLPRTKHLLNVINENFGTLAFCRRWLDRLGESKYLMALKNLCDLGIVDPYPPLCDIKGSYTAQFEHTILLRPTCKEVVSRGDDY

IC50 [nM] | SMILES
10 to 1000 | O=C1CCc2cc(N3CC[C@](O)(C(=O)NCc4c(F)cc(Cl)cc4F)C3=O)ccc2N1 [A249, N-(4-Chloro-2,6-difluorobenzyl)-(S)-3-hydroxy-2-oxo-1-(2-oxo-1,2,3,4-tetrahydroquinolin-6-yl)-pyrrolidine-3-carboxamide]
10 to 1000 | O=C1CCc2cc(N3CC[C@](O)(C(=O)NCc4c(F)ccc(Cl)c4F)C3=O)ccc2N1 [A250, N-(3-Chloro-2,6-difluorobenzyl)-(S)-3-hydroxy-2-oxo-1-(2-oxo-1,2,3,4-tetrahydroquinolin-6-yl)-pyrrolidine-3-carboxamide]
1000 to 10000 | O=C(NCc1cc(F)cc(F)c1)C1(O)CCCN(CC2CCC2)C1=O (centres unmarked) [A252, N-(3,5-Difluorobenzyl)-1-cyclobutylmethyl-3-hydroxy-2-oxopiperidine-3-carboxamide]
1000 to 10000 | O=C(NCc1cccc(F)c1)C1(O)CCCN(Cc2ccc(F)c(F)c2)C1=O (centres unmarked) [A253, N-(3-Fluorobenzyl)-1-(3,4-difluorobenzyl)-3-hydroxy-2-oxo-piperidine-3-carboxamide]
10 to 1000 | O=C(NCc1cccc(F)c1)[C@@]1(O)CCCN(Cc2cccc(F)c2F)C1=O [A254, N-(3-Fluorobenzyl)-(S)-1-(2,3-difluorobenzyl)-3-hydroxy-2-oxo-piperidine-3-carboxamide]
1000 to 10000 | O=C(NCc1ccc(F)cc1)[C@@]1(O)CCCN(Cc2cccc(F)c2F)C1=O [A255, N-(4-Fluorobenzyl)-(S)-1-(2,3-difluorobenzyl)-3-hydroxy-2-oxo-piperidine-3-carboxamide]
10 to 1000 | O=C(NCc1cccc(F)c1)[C@@]1(O)CCCN(CC2CCCCC2)C1=O [A256, N-(3-fluorobenzyl)-(S)-1-cyclohexylmethyl-3-hydroxy-2-oxopiperidine-3-carboxamide]
1000 to 10000 | O=C(NCc1ccc(F)cc1)C1(O)CCCN(Cc2ccc(F)c(F)c2)C1=O (centres unmarked) [A257, N-(4-Fluorobenzyl)-1-(3,4-difluorobenzyl)-3-hydroxy-2-oxo-piperidine-3-carboxamide]
> 10000 | Cc1cc(CNC(=O)C2(O)CCCN(Cc3ccc(F)c(F)c3)C2=O)no1 (centres unmarked) [A258, N-(5-Methylisoxazol-3-ylmethyl)-1-(3,4-difluorobenzyl)-3-hydroxy-2-oxopiperidine-3-carboxamide]
> 10000 | O=C(NCc1ccccn1)[C@@]1(O)CCCN(Cc2cccc(F)c2F)C1=O [A259, N-(Pyridin-2-ylmethyl)-(S)-1-(2,3-difluorobenzyl)-3-hydroxy-2-oxopiperidine-3-carboxamide]
> 10000 | O=C(NCc1ccccn1)[C@]1(O)CCCN(Cc2cccc(F)c2F)C1=O [A260, N-(Pyridin-2-ylmethyl)-(R)-1-(2,3-difluorobenzyl)-3-hydroxy-2-oxopiperidine-3-carboxamide]
> 10000 | O=C(NCc1cccc(F)c1)[C@]1(O)CCCN(Cc2cccc(F)c2F)C1=O [A261, N-(3-Fluorobenzyl)-(R)-1-(2,3-difluorobenzyl)-3-hydroxy-2-oxo-piperidine-3-carboxamide]
> 10000 | O=C(NCc1ccc(F)cc1)[C@]1(O)CCCN(Cc2cccc(F)c2F)C1=O [A262, N-(4-Fluorobenzyl)-(R)-1-(2,3-difluorobenzyl)-3-hydroxy-2-oxo-piperidine-3-carboxamide]
> 10000 | O=C(NCc1cccc(F)c1)[C@]1(O)CCCN(CC2CCCCC2)C1=O [A263, N-(3-fluorobenzyl)-(R)-1-cyclohexylmethyl-3-hydroxy-2-oxopiperidine-3-carboxamide]
1000 to 10000 | O=C1CCc2cc(N3CC[C@](O)(C(=O)NCc4ccc(Cl)c(F)c4)C3=O)ccc2N1 [A265, N-(4-Chloro-3-fluorobenzyl)-(S)-3-hydroxy-2-oxo-1-(2-oxo-1,2,3,4-tetrahydroquinolin-6-yl)-pyrrolidine-3-carboxamide]
1000 to 10000 | O=C(N1Cc2ccccc2C1)C1(O)CCN(c2ccccc2)C1=O (centres unmarked) [A267, 3-(1,3-dihydroisoindole-2-carbonyl)-3-hydroxy-1-phenylpyrrolidin-2-one]
> 10000 | O=C1N(Cc2ccccc2)CCC1(O)C(=O)N1Cc2ccccc2C1 (centres unmarked) [A268, 1-benzyl-3-(1,3-dihydroisoindole-2-carbonyl)-3-hydroxypyrrolidin-2-one]
1000 to 10000 | O=C(NCc1cc(F)cc(Cl)c1)C1(O)CCN(Cc2nc3ccccc3[nH]2)C1=O (centres unmarked) [A269, N-(3-chloro-5-fluorobenzyl)-1-(1H-benzimidazol-2-ylmethyl)-3-hydroxy-2-oxopyrrolidine-3-carboxamide]
10 to 1000 | O=C(NCc1cc(F)cc(Cl)c1)C1(O)CCN(Cc2nc3ccccc3s2)C1=O (centres unmarked) [A270, N-(3-Chloro-5-fluorobenzyl)-1-benzothiazol-2-ylmethyl-3-hydroxy-2-oxopyrrolidine-3-carboxamide]

IC50 [nM] | SMILES
> 10000 | O=C(O)CCN1CCC(O)(C(=O)NCc2cc(F)cc(Cl)c2)C1=O (centres unmarked) [A271, 3-[3-(3-Chloro-5-fluorobenzylcarbamoyl)-3-hydroxy-2-oxopyrrolidin-1-yl]-propionic acid]
1000 to 10000 | Cn1cncc1CN1CCC(O)(C(=O)NCc2cc(F)cc(Cl)c2)C1=O (centres unmarked) [A272, N-(3-Chloro-5-fluorobenzyl)-3-hydroxy-1-(3-methyl-3H-imidazol-4-ylmethyl)-2-oxo-pyrrolidine-3-carboxamide]
1000 to 10000 | O=C(NCc1cc(F)cc(Cl)c1)C1(O)CCN(C[C@H]2CC[C@H](C(=O)O)CC2)C1=O (some centres unmarked) [A273, 4-[3-(3-Chloro-5-fluorobenzylcarbamoyl)-3-hydroxy-2-oxopyrrolidin-1-yl-methyl]cyclohexanecarboxylic acid]
1000 to 10000 | O=C(NCc1cc(F)cc(Cl)c1)C1(O)CCN(C[C@H]2CC[C@@H](C(=O)O)CC2)C1=O (some centres unmarked) [A274, 4-[3-(3-Chloro-5-fluorobenzylcarbamoyl)-3-hydroxy-2-oxopyrrolidin-1-yl-methyl]cyclohexanecarboxylic acid]
> 10000 | CCN1C[C@@H]2[C@H](C1)[C@H]2N1CCC(O)(C(=O)NCc2cc(F)cc(Cl)c2)C1=O (stereo partly drawn) [A275, N-(3-Chloro-5-fluorobenzyl)-1-((1S,5R,6S)-3-ethyl-3-aza-bicyclo[3.1.0]hex-6-yl)-3-hydroxy-2-oxopyrrolidine-3-carboxamide]
1000 to 10000 | Cn1nccc1CN1CCC(O)(C(=O)NCc2cc(F)cc(Cl)c2)C1=O (centres unmarked) [A276, N-(3-Chloro-5-fluorobenzyl)-3-hydroxy-1-(2-methyl-2H-pyrazol-3-ylmethyl)-2-oxopyrrolidine-3-carboxamide]
10 to 1000 | O=C(NCc1cc(F)cc(Cl)c1)C1(O)CCN(Cc2cc[nH]n2)C1=O (centres unmarked) [A277, N-(3-Chloro-5-fluorobenzyl)-3-hydroxy-2-oxo-1-(1H-pyrazol-3-ylmethyl)pyrrolidine-3-carboxamide]
10 to 1000 | CNC(=O)[C@H]1CC[C@H](CN2CCC(O)(C(=O)NCc3cc(F)cc(Cl)c3)C2=O)CC1 (some centres unmarked) [A278, N-(3-Chloro-5-fluorobenzyl)-3-hydroxy-1-(4-methylcarbamoyl-cyclohexylmethyl)-2-oxo-pyrrolidine-3-carboxamide]
1000 to 10000 | O=C(NCc1cc(F)cc(Cl)c1)C1(O)CCN(Cc2c[nH]cn2)C1=O (centres unmarked) [A279, N-(3-Chloro-5-fluorobenzyl)-3-hydroxy-1-(1H-imidazol-4-ylmethyl)-2-oxopyrrolidine-3-carboxamide]
1000 to 10000 | Cc1ccc(CN2CCC(O)(C(=O)NCc3cc(F)cc(Cl)c3)C2=O)n1C (centres unmarked) [A280, N-(3-Chloro-5-fluorobenzyl)-1-(1,5-Dimethyl-1H-pyrrol-2-ylmethyl)-3-hydroxy-2-oxo-pyrrolidine-3-carboxamide]
1000 to 10000 | CS(=O)(=O)N1CC[C@H](N2CCC(O)(C(=O)NCc3cc(F)cc(Cl)c3)C2=O)C1 (stereo partly drawn) [A281, N-(3-Chloro-5-fluorobenzyl)-(S)-3-hydroxy-1′-methanesulfonyl-2-oxo[1,3′]bipyrrolidinyl-3-carboxamide]
1000 to 10000 | O=C(CN1CCC(O)(C(=O)NCc2cc(F)cc(Cl)c2)C1=O)NCCO (centres unmarked) [A282, N-(3-Chloro-5-fluorobenzyl)-3-hydroxy-1-[(2-hydroxy-ethylcarbamoyl)methyl]-2-oxo-pyrrolidine-3-carboxamide]
10 to 1000 | O=C1CCc2cc(N3CC[C@](O)(C(=O)NCc4ccc(F)c(F)c4F)C3=O)ccc2N1 [A284, N-(2,3,4-Trifluorobenzyl)-(S)-3-hydroxy-2-oxo-1-(2-oxo-1,2,3,4-tetrahydroquinolin-6-yl)-pyrrolidine-3-carboxamide]
10 to 1000 | O=C1Nc2ccc(N3CC[C@](O)(C(=O)NCc4cc(F)cc(Cl)c4)C3=O)cc2C1(F)F [A286, N-(3-Chloro-5-fluorobenzyl)-(S)-1-(3,3-difluoro-2-oxo-2,3-dihydro-1H-indol-5-yl)-3-hydroxy-2-oxopyrrolidine-3-carboxamide]
> 10000 | O=C1Nc2ccc(N3CC[C@@](O)(C(=O)NCc4cc(F)cc(Cl)c4)C3=O)cc2C1(F)F [A288, N-(3-Chloro-5-fluorobenzyl)-(R)-1-(3,3-difluoro-2-oxo-2,3-dihydro-1H-indol-5-yl)-3-hydroxy-2-oxopyrrolidine-3-carboxamide]
1000 to 10000 | Cc1nnc(CN2CCC(O)(C(=O)NCc3cc(F)cc(Cl)c3)C2=O)o1 (centres unmarked) [A290, N-(3-Chloro-5-fluorobenzyl)-3-hydroxy-1-(5-methyl-1,3,4-oxadiazol-2-ylmethyl)-2-oxo-pyrrolidine-3-carboxamide]
1000 to 10000 | CC(=O)N1CC[C@@H](N2CCC(O)(C(=O)NCc3cc(F)cc(Cl)c3)C2=O)C1 (stereo partly drawn) [A291, N-(3-chloro-5-fluorobenzyl-)(R)-1′-acetyl-3-hydroxy-2-oxo-[1,3′]bipyrrolidinyl-3-carboxamide]
1000 to 10000 | CS(=O)(=O)N1CC[C@@H](N2CCC(O)(C(=O)NCc3cc(F)cc(Cl)c3)C2=O)C1 (stereo partly drawn) [A292, N-(3-Chloro-5-fluorobenzyl)-(R)-3-hydroxy-1′-methanesulfonyl-2-oxo[1,3′]bipyrrolidinyl-3-carboxamide]
10 to 1000 | CC1CCC(N2CCC(O)(C(=O)NCc3cc(F)cc(Cl)c3)C2=O)CC1 (centres unmarked) [A293, N-(3-Chloro-5-fluorobenzyl)-3-hydroxy-1-(4-methylcyclohexyl)-2-oxopyrrolidine-3-carboxamide]
